Data as given in ChEMBL document CHEMBL3638030, “IC50 data for the L-type calcium channel extracted from a set of literature articles”.
pIC50: −log10 of the molar value.

Assays:
[1] = target: T1, Voltage-dependent L-type calcium channel subunit alpha-1C (Rattus norvegicus, UniProt P22002); experiment: Inhibition of Cav1.2 calcium current measured using whole cell patch clamp in rat myocyte; format: functional, Heart, Cardiac Muscle Cell; parameters: ca sol conc 1.8 mM, temp 20-25 C
[2] = target: Voltage-dependent L-type calcium channel subunit alpha-1C (Oryctolagus cuniculus, UniProt P15381); experiment: Inhibition of Cav1.2 calcium current measured using whole cell patch clamp in rabbit ventricular myocytes; format: functional, cell-based, Heart, Ventricular myocyte; parameters: ca sol conc 1 - BaCl2 mM, temp 37 C
[3] = target: T2, Voltage-dependent L-type calcium channel subunit alpha-1C (Cavia porcellus, UniProt O35505); experiment: (§1) Inhibition of Cav1.2 calcium current measured using whole cell patch clamp in guinea pig atrial myocytes; format: functional, cell-based, Heart, Cardiac Muscle Cell; parameters: ca sol conc 1.8 mM, temp 36 pm 1 C
T2 sequence (O35505 whole entry): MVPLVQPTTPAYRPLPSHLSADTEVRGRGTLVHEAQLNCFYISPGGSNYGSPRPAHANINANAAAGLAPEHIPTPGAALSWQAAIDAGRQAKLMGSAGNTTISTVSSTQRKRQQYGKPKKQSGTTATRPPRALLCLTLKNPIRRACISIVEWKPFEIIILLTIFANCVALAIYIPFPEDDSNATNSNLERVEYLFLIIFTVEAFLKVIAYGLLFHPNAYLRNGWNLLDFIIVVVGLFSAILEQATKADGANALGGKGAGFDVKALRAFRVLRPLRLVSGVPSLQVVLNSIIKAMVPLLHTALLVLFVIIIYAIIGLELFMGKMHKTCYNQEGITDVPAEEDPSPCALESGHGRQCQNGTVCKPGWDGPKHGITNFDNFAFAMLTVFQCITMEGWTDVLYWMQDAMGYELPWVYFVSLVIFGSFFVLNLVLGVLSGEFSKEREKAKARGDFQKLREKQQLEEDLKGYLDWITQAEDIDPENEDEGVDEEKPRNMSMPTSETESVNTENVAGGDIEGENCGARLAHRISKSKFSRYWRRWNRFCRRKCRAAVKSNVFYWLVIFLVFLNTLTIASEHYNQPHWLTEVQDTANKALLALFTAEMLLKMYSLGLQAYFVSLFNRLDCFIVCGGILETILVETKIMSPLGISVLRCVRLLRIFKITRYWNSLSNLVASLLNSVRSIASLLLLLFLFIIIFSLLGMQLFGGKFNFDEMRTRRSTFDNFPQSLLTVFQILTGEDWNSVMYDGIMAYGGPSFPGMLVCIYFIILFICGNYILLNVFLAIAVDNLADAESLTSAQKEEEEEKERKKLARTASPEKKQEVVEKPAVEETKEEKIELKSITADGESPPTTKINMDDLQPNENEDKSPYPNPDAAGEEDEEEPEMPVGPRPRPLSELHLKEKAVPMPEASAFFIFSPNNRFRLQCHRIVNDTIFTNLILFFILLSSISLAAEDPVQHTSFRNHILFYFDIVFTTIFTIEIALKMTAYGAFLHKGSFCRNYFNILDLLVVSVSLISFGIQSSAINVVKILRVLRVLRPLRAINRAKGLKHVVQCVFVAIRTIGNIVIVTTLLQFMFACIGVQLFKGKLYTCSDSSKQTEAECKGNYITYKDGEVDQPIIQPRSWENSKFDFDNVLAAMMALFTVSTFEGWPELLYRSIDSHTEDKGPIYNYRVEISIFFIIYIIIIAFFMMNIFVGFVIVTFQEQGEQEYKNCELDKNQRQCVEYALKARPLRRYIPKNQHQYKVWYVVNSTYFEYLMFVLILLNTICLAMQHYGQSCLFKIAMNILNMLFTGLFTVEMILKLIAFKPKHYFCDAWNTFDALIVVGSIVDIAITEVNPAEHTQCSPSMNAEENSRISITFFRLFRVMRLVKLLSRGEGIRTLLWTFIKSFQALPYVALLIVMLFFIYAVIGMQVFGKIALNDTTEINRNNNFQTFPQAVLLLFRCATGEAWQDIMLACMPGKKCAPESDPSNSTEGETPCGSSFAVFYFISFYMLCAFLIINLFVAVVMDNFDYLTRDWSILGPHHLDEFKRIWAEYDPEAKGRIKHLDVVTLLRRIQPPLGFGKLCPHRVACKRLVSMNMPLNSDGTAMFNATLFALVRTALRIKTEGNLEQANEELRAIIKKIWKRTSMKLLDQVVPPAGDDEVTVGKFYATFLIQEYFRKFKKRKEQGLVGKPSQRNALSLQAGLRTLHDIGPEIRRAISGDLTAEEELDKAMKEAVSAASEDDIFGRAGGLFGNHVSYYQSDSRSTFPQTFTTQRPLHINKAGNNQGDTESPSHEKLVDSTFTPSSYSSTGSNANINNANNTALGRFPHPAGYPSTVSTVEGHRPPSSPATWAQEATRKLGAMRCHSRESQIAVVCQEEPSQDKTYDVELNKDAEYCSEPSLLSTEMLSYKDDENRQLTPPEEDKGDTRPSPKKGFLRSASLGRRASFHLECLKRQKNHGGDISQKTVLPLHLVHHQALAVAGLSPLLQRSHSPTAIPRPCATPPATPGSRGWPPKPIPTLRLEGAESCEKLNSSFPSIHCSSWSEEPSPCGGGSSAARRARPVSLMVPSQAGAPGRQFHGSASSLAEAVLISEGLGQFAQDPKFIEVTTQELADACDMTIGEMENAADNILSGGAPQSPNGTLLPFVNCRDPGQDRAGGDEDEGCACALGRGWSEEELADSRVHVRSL

[4] = target: T1, Voltage-dependent L-type calcium channel subunit alpha-1C; experiment: (§2) Inhibition of Cav1.2 calcium current measured using whole cell patch clamp in rat ventricular myocytes; format: functional, cell-based, Heart, Ventricular myocyte; parameters: ca sol conc 1.8 mM, temp 25-27 C
[5] = target: L-type calcium channel alpha 1C/beta 2A (Oryctolagus cuniculus, UniProt P15381+P54288); experiment: Inhibition of Cav1.2 calcium current measured using whole cell patch clamp in human HEK293 cells transfected with rabbit L-type calcium channel subunits; format: functional, cell-based; parameters: ca sol conc 5 mM, temp room
[6] = target: T1, Voltage-dependent L-type calcium channel subunit alpha-1C; experiment: Inhibition of Cav1.2 calcium current measured using FLIPR in rat aortic A7r5 cells; format: functional, cell-based
[7] = target: Voltage-dependent L-type calcium channel subunit alpha-1C (Homo sapiens, UniProt Q13936); experiment: Inhibition of Cav1.2 calcium current measured using whole cell patch clamp in human atrial myocytes; format: functional, cell-based, Heart, Cardiac Muscle Cell; parameters: ca sol conc 2 mM, temp 22/37 C
[8] = target: T2, Voltage-dependent L-type calcium channel subunit alpha-1C; experiment: (§3) Inhibition of Cav1.2 calcium current measured using whole cell patch clamp in guinea pig ventricular myocytes; format: functional, cell-based, Heart, Ventricular myocyte; parameters: ca sol conc 2 mM, temp 22/37 C
[9] = target: T2, Voltage-dependent L-type calcium channel subunit alpha-1C; experiment: as §3; format: functional, cell-based, Heart, Ventricular myocyte; parameters: ca sol conc 1.2 mM, temp 24 pm 1 C
[10] = target: T1, Voltage-dependent L-type calcium channel subunit alpha-1C; experiment: Inhibition of Cav1.2 calcium current measured using whole cell patch clamp in rat Artery myocytes; format: functional, cell-based, Tail; parameters: ca sol conc 5 mM, temp 20-22 C
[11] = target: T2, Voltage-dependent L-type calcium channel subunit alpha-1C; experiment: as §3; format: functional, cell-based, Heart, Ventricular myocyte; parameters: ca sol conc 2 mM, temp 21-23 C
[12] = target: T1, Voltage-dependent L-type calcium channel subunit alpha-1C; experiment: as §2; format: functional, cell-based, Heart, Ventricular myocyte; parameters: ca sol conc 1 mM, temp 22-25 C
[13] = target: T1, Voltage-dependent L-type calcium channel subunit alpha-1C; experiment: as §2; format: functional, cell-based, Heart, Ventricular myocyte; parameters: ca sol conc 1.8 mM
[14] = target: T2, Voltage-dependent L-type calcium channel subunit alpha-1C; experiment: as §3; format: functional, cell-based, Heart, Ventricular myocyte; parameters: ca sol conc 1 mM, temp 35 C
[15] = target: T2, Voltage-dependent L-type calcium channel subunit alpha-1C; experiment: as §3; format: functional, cell-based, Heart, Ventricular myocyte; parameters: ca sol conc 1.8 mM, temp 20-24 C
[16] = target: T2, Voltage-dependent L-type calcium channel subunit alpha-1C; experiment: as §3; format: functional, cell-based, Heart, Ventricular myocyte; parameters: ca sol conc 1.8 mM, temp 35-36 C
[17] = target: Voltage-dependent L-type calcium channel subunit alpha-1C (Mus musculus, UniProt Q01815); experiment: Inhibition of Cav1.2 calcium current measured using whole cell patch clamp in mouse ventricular myocytes; format: functional, cell-based, Heart, Ventricular myocyte; parameters: ca sol conc 2.5 mM, temp 22-24 C
[18] = target: T2, Voltage-dependent L-type calcium channel subunit alpha-1C; experiment: as §1; format: functional, cell-based, Heart, Cardiac Muscle Cell; parameters: ca sol conc 2 mM, temp 22 pm 1 C
[19] = target: T2, Voltage-dependent L-type calcium channel subunit alpha-1C; experiment: as §3; format: functional, cell-based, Heart, Ventricular myocyte; parameters: ca sol conc 1.8 mM, temp 35 pm 0.5 C

T1 sequence (P22002 whole entry): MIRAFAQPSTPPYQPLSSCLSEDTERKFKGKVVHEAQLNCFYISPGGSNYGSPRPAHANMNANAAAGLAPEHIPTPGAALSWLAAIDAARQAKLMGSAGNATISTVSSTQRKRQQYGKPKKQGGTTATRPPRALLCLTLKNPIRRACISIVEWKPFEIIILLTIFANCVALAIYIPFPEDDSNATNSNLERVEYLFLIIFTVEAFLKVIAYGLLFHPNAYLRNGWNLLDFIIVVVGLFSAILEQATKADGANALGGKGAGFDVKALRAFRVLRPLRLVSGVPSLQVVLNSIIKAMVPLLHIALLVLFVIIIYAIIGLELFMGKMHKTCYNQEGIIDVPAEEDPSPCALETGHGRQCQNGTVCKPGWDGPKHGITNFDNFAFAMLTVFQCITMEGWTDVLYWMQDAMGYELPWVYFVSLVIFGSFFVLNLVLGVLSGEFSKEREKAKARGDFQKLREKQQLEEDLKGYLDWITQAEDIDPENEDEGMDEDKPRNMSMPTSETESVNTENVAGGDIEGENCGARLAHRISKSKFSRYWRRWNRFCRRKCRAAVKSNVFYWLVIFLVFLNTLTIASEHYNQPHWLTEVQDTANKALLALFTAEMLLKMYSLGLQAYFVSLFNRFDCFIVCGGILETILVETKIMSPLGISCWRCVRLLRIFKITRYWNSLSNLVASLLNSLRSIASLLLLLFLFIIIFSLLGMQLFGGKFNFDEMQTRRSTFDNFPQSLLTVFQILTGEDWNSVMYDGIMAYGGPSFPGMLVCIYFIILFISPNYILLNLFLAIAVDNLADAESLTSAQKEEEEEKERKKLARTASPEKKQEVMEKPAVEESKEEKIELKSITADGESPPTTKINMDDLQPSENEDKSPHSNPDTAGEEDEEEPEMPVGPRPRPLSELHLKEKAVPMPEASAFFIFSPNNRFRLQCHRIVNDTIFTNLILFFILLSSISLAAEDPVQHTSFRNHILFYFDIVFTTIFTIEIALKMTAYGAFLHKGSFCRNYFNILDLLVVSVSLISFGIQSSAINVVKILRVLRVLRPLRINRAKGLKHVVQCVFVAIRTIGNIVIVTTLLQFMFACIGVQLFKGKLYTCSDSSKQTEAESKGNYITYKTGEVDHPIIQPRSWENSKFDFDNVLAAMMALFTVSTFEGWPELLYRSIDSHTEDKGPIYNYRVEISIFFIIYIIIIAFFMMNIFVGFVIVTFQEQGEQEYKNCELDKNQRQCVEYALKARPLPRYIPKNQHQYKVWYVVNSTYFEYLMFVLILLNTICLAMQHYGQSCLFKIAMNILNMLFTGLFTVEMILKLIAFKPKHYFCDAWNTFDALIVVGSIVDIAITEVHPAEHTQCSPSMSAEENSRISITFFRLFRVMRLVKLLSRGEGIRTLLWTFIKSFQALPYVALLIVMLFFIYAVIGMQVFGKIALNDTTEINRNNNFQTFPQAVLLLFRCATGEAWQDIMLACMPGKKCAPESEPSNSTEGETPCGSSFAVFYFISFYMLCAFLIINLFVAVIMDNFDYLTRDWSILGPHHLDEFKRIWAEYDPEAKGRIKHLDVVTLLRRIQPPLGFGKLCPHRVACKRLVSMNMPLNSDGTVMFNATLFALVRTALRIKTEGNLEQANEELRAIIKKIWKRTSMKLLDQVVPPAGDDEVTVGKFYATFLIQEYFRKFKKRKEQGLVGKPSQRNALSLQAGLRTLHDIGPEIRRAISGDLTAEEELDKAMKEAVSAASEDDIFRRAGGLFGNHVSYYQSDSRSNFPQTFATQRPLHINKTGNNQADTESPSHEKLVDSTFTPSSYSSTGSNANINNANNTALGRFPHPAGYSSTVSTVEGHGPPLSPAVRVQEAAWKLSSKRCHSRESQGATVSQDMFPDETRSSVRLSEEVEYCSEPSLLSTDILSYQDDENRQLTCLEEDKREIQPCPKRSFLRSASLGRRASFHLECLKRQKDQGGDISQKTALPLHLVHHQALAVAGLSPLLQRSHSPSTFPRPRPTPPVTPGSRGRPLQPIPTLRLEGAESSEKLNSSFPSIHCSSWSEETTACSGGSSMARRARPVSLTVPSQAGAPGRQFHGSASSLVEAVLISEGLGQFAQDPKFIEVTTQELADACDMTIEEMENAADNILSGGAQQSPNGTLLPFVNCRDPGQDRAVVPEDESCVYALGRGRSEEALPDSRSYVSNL

SMILES: CC(=O)N1CCN(c2ccc(OCC3COC(Cn4ccnc4)(c4ccc(Cl)cc4Cl)O3)cc2)CC1 (stereo unspecified) [KETOCONAZOLE]
- pIC50 [1]: 5.46

SMILES: CC(C)[C@@H]1CC[C@@H](C)C[C@H]1O [LEVOMENTHOL]
- pIC50 [2]: 4.13

SMILES: COc1ccc(OCCCN(C)CCOc2ccc3c(c2)OCO3)c([C@@H]2Sc3ccccc3N(C)C2=O)c1 [LEVOSEMOTIADIL]
- pIC50 [3]: 5.89

SMILES: O=C1c2ccccc2-c2c3c(cc4ccnc1c24)OCO3 [LIRIODENINE]
- pIC50 [4]: 5.60

SMILES: O=c1cc(N2CCOCC2)oc2c(-c3ccccc3)cccc12 [LY-294002]
- pIC50 [5]: 4.92

SMILES: COCC(=O)O[C@]1(CCN(C)CCCc2nc3ccccc3[nH]2)CCc2cc(F)ccc2[C@@H]1C(C)C [MIBEFRADIL]
- pIC50 [6]: 5.96

SMILES: Clc1ccc(COC(Cn2ccnc2)c2ccc(Cl)cc2Cl)c(Cl)c1 (stereo unspecified) [MICONAZOLE]
- pIC50 [1]: 5.52

SMILES: CCCOC(C(=O)OC1CCN(C)CC1)(c1ccccc1)c1ccccc1 [PROPIVERINE]
- pIC50 [7]: 4.38
- pIC50 [8]: 4.46

SMILES: CCN(CC)CCCC(C)Nc1c2ccc(Cl)cc2nc2ccc(OC)cc12 (stereo unspecified) [QUINACRINE]
- pIC50 [9]: 5.25

SMILES: O=c1c(O)c(-c2ccc(O)cc2)oc2cc(O)ccc12 [RESOKAEMPFEROL]
- pIC50 [10]: 4.56

SMILES: CCCN1CCCC[C@H]1C(=O)Nc1c(C)cccc1C [ROPIVACAINE]
- pIC50 [11]: 3.37

SMILES: O=C(/C=C/c1ccc(O)c(O)c1/C=C/c1ccc(O)c(O)c1)O[C@H](Cc1ccc(O)c(O)c1)C(=O)O [SALVIANOLIC ACID A]
- pIC50 [12]: 4.42

SMILES: CC(C)CC(N(C)C)C1(c2ccc(Cl)cc2)CCC1 (stereo unspecified) [SIBUTRAMINE]
- pIC50 [13]: 5.00

SMILES: CN1CCN(c2ncc(-c3cc(Cl)cc(Cl)c3Cl)c(N)n2)CC1 [SIPATRIGINE]
- pIC50 [14]: 5.22

SMILES: COc1ccc(S(=O)(=O)NCc2cc(CN3CCCC3)c(O)c(CN3CCCC3)c2)cc1 [SULCARDINE]
- pIC50 [15]: 4.16

SMILES: CCN(CC)CC#CC(C)(C)OC(=O)C(O)(c1ccccc1)C1CCCCC1 (stereo unspecified) [TEMIVERINE]
- pIC50 [16]: 4.57

SMILES: CCC(C)(C)C(=O)O[C@H]1C[C@@H](C)C=C2C=C[C@H](C)[C@H](CC[C@@H](O)C[C@@H](O)CC(=O)O)[C@H]21 [TENIVASTATIN]
- pIC50 [17]: 5.41

SMILES: CC(CC(c1ccccc1)c1ccccc1)NC(C)(C)C (stereo unspecified) [TERODILINE]
- pIC50 [16]: 4.47

SMILES: CCCC(C)C1(CC)C(=O)NC(=S)NC1=O (stereo unspecified) [THIOPENTAL]
- pIC50 [18]: 6.55

SMILES: Cc1c(C)c2c(c(C)c1O)CCC(C)(COc1ccc(CC3SC(=O)NC3=O)cc1)O2 (stereo unspecified) [TROGLITAZONE]
- pIC50 [19]: 6.10
